In this assay the target is T1, ACAT-1 (Homo sapiens, UniProt P35610).
T1 construct: To 2.6 ml of broken homogenate having a protein concentration of 2.5 mg/ml was added 0.65 ml of 5×DOC/PC; endogenous in cells; host or cells: SW-13 cells (human adrenal cortical adenocarcinoma); broken homogenate solubilised with deoxycholate/PC and reconstituted into cholesterol/PC vesicles
T1 sequence (P35610 1-550): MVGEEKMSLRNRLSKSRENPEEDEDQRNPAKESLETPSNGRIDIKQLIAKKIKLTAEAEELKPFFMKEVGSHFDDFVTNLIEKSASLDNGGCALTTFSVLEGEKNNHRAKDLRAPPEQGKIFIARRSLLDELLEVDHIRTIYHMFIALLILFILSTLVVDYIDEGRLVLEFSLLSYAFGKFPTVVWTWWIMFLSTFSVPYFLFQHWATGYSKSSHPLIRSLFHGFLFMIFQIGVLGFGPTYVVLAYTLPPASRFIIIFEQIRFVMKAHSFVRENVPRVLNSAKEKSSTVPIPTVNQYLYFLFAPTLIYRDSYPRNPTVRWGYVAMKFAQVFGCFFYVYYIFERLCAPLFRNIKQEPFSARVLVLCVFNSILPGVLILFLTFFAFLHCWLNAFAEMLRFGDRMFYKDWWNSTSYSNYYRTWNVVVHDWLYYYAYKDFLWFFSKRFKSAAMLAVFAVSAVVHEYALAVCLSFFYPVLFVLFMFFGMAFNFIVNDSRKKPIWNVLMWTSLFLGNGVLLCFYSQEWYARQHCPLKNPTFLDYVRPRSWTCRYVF
The experiment in a line: ACAT-1 Inhibitory Action Test 1 (reconstituted vesicle assay, enzyme solution from SW-13 cell broken homogenate). Type of assay: biochemical. Conditions: test substance 1×10^−3 mol/l in DMSO, 2.5 μl added to 200 μl enzyme solution + 50 μl substrate solution; 37° C., 30 minutes; decrease in total cholesterol ester vs DMSO control.

Experimental: SW-13 cells (derived from human adrenal cortical adenocarcinoma) were cultured on a culture plate until confluence in an L-15 culture medium containing 10% fetal bovine serum (FBS) in a carbon dioxide incubator.
Broken homogenates were collected according to a published procedure (hypotonic shock and scrapping method, Anal. Biochem., 116, 298–302 (1981)), subjected to protein quantitation (Bradford method), and stored at −80° C. till use.
Chol/PC vesicles (Chol/PC=3.9 mM/12.8 mM) were prepared according to a method described by Chang et al. (Chang, T. Y. et al., Anal. Biochem., 157, 323–330 (1986)). […]
With respect to the hexane phase in the glass test tube, the solvent was removed under a nitrogen gas stream. […] Using a bio-imaging analyzer (BAS-2000II, manufactured by Fuji Photo Film Co., Ltd.), the ^14C of the cholesterol ester fraction was quantified.
With respect to the hexane phase in the scintillation vial, ^3H was counted after adding a scintillation cocktail. Based on the amount of ^3H in the [^3H]-cholesteryl oleate-containing ethanol, the extraction efficiency was calculated. Based on the extraction efficiency, the amount of total cholesterol ester produced was calculated. In comparison with the control, decrease in the amount of the total cholesterol ester produced when a test substance was used was expressed as ACAT-1 enzyme inhibition (%).

On to “diethyl 4-(7-chloro-3-N-(4-methyl -benzylideneamin)-4(3H)-quinazolinon-2-yl)benzylphosphonate [Example 1]”, for which the “ACAT-1 enzyme inhibition (%)” value came out at 75%.

For the origin of these results see patent US7259155B2, “Phosphonic diester derivatives” (Otsuka Pharmaceutical Factory, Inc., priority 2004, dated 2007).
